Patent publication US20110105397A1, “METHOD FOR TREATING HEART FAILURE WITH STRESSCOPIN-LIKE PEPTIDES” (priority 2009, published 2011)
Read-outs that look alike come from different tables or passages of the source.

Key:
[1] = test system: isolated rat aortic rings; test: Vascular smooth muscle relaxation, isolated rat aortic rings pre-contracted with phenylephrine
Description: The ability of h-SCP (SEQ ID NO:1) to relax vascular smooth muscle was examined in isolated, rat aortic rings pre-contracted with phenylephrine (PE) (FIG. 8). […] The responses caused by h-SCP (SEQ ID NO:1) were inhibited by anti-sauvagine-30 (SEQ ID NO:118).

[2] = Human pharmacokinetics, heart failure subjects, 7.5-hour continuous ascending dose IV infusion; details: in vivo; for Tmax: median
Description: In heart failure subjects following a 7.5-hour continuous ascending dose IV infusion of h-SCP (SEQ ID NO:1) noncompartmental pharmacokinetic analyses were performed on plasma concentrations of h-SCP (SEQ ID NO:1). The pharmacokinetics of h-SCP (SEQ ID NO:1) in heart failure subjects appeared to be similar to that of healthy subjects. […] Within 30 minutes, plasma h-SCP (SEQ ID NO:1) was reduced to equal or less than 20% of the h-SCP (SEQ ID NO:1) level at the end of the infusion (FIG. 16B).

[3] = test system: healthy subjects; test: Human hemodynamics (impedance cardiography), healthy subjects, 7.5-hour ascending dose IV infusion; assay type: in vivo; details: for Heart Rate Change from Baseline / Heart Rate Percent Change from Baseline: post hoc analysis
Description: Efficacy was based on the pharmacodynamic evaluation of hemodynamics, which was monitored using the noninvasive technique of impedance cardiography. Heart rate values were collected by impedance cardiography measurements. It was noted that the heart rate of subjects receiving placebo were elevated on the day of their infusions, at baseline before the infusion, and for the first 3 to 4 hours after the infusions were started (FIG. 17). Based on this observation, it appeared that there was a potential effect of period on the observed heart rate.
A mixed-effect model with baseline as covariate, period and dose group (≦3 ng/kg/min−low, >3 to ≦36 ng/kg/min−mid, >36 ng/kg/min−high) as fixed effects, and a random subject effect was established using the heart rate change from baseline in healthy subjects.
To confirm that the statistically significant increase in heart rate is caused by the high dose group, a similar mixed-effect model that excluded the high dose level (>36 ng/kg/min) group was built up.
A post hoc graphical analysis of the hemodynamic data was done to adjust for the elevated baseline values seen just before onset of the infusion, to obtain the best estimate of each hemodynamic parameter, and to correct for the effect of period. A post hoc graphic presentation was prepared from the complete (high frequency) dataset. This dataset contains the raw data that were further processed by the vendor (ie, CardioDynamics) and reported only at specific time points.
In this post hoc analysis an extended baseline was used for each value that included all values recorded before initiation of the infusion. Then an average value for each parameter was obtained from the last 30 minutes of each 2.5 hour infusion and was used as the effect in that period of the infused dose. Each value was modified for the effect of period of infusion by subtracting the mean change from baseline seen in placebo subjects dosed in that same period (placebo subtraction). The dose effect was estimated by averaging the values from all subjects who received the same dose after the placebo subtraction.

[4] = infusion rate 1/3/9 ng/kg/min, mean, N = 2
[5] = infusion rate 3/9/18 ng/kg/min, mean, N = 2
[6] = infusion rate 3/18/54 ng/kg/min, mean, N = 2

H-TKFTLSLDVPTNIMNLLFNIAKAKNLRAQAAANAHLMAQI-NH2 [SEQ ID NO: 1, TKFTLSLDVPTNIMNLLFNIAKAKNLRAQAAANAHLMAQI-NH2]
fold less potent than h-UCN2 [1]: 10 fold
pA50 of relaxation ([1]; rat aortic rings pre-contracted with phenylephrine): 6.05±0.12
AUC(0-inf) ([2]; infusion rate 0.3/1/3 ng/kg/min, N = 1): 3.4 ng·h/mL
clearance ([2]; infusion rate 0.3/1/3 ng/kg/min, N = 1, read-out: CL (converted)): 3.17 mL/min/kg
Cmax ([2]; infusion rate 0.3/1/3 ng/kg/min, mean, N = 2): 0.826 ng/mL
Tmax ([2]; infusion rate 0.3/1/3 ng/kg/min, N = 2): 6.25 h
AUC(0-inf) [2, 4]: 6.72 ng·h/mL
Cmax [2, 4]: 1.98 ng/mL
clearance ([2]; infusion rate 1/3/9 ng/kg/min, mean, N = 2, read-out: CL (converted)): 5.33 mL/min/kg
Tmax ([2]; infusion rate 1/3/9 ng/kg/min, N = 2): 7.04 h
AUC(0-inf) [2, 5]: 19 ng·h/mL
Cmax [2, 5]: 4.77 ng/mL
clearance ([2]; infusion rate 3/9/18 ng/kg/min, mean, N = 2, read-out: CL (converted)): 4 mL/min/kg
Tmax ([2]; infusion rate 3/9/18 ng/kg/min, N = 2): 6.75 h
AUC(0-inf) [2, 6]: 24.9 ng·h/mL
Cmax [2, 6]: 6.41 ng/mL
clearance ([2]; infusion rate 3/18/54 ng/kg/min, mean, N = 2, read-out: CL (converted)): 7.67 mL/min/kg
Tmax ([2]; infusion rate 3/18/54 ng/kg/min, N = 2): 6.04 h
AUC(0-inf) ([2]; infusion rate 9/18/36 ng/kg/min, mean, N = 2): 33.8 ng·h/mL
clearance ([2]; infusion rate 9/18/36 ng/kg/min, mean, N = 2, read-out: CL (converted)): 5.5 mL/min/kg
half-life ([2]; infusion rate 9/18/36 ng/kg/min, mean, N = 2, read-out: T1/2, effective (converted)): 3.95 h
Cmax ([2]; infusion rate 9/18/36 ng/kg/min, mean, N = 3): 5.52 ng/mL
Tmax ([2]; infusion rate 9/18/36 ng/kg/min, N = 3): 7.48 h
AUC(0-inf) ([2]; infusion rate 18/36/45 ng/kg/min, N = 1): 51.5 ng·h/mL
clearance ([2]; infusion rate 18/36/45 ng/kg/min, N = 1, read-out: CL (converted)): 4.83 mL/min/kg
Cmax ([2]; infusion rate 18/36/45 ng/kg/min, mean, N = 2): 8.04 ng/mL
Tmax ([2]; infusion rate 18/36/45 ng/kg/min, N = 2): 7.34 h
clearance ([2]; read-out: Mean systemic clearance): 3.17 to 7.67 mL/min/kg
half-life ([2]; read-out: Mean terminal half-life): 0.24 to 7.04 h
half-life ([2]; read-out: effective half-life): 1.32 to 2.51 h
cardiac output or cardiac index ([3]; all doses ≦36 ng/kg/min): no change in cardiac output or cardiac index
heart rate compared with baseline ([3]; doses less than 36 ng/kg/min): no notable increase in heart rate compared with baseline
increase in heart rate from baseline ([3]; doses of 72 ng/kg/min and higher, end of 2.5-hour infusion period): ~30 bpm
Heart Rate Change from Baseline ([3]; infusion rate 0.1 ng/kg/min): −2.8 bpm
Heart Rate Percent Change from Baseline ([3]; infusion rate 0.1 ng/kg/min): −4.6%
Heart Rate Change from Baseline ([3]; infusion rate 0.3 ng/kg/min): −0.4 bpm
Heart Rate Percent Change from Baseline ([3]; infusion rate 0.3 ng/kg/min): −0.2%
Heart Rate Change from Baseline ([3]; infusion rate 1 ng/kg/min): −2.0 bpm
Heart Rate Percent Change from Baseline ([3]; infusion rate 1 ng/kg/min): −3.3%
Heart Rate Change from Baseline ([3]; infusion rate 3 ng/kg/min): 1.3 bpm
Heart Rate Percent Change from Baseline ([3]; infusion rate 3 ng/kg/min): 2.6%
Heart Rate Change from Baseline ([3]; infusion rate 9 ng/kg/min): 0.1 bpm
Heart Rate Percent Change from Baseline ([3]; infusion rate 9 ng/kg/min): 0.6%
Heart Rate Change from Baseline ([3]; infusion rate 18 ng/kg/min): 2.1 bpm
Heart Rate Percent Change from Baseline ([3]; infusion rate 18 ng/kg/min): 3.9%
Heart Rate Change from Baseline ([3]; infusion rate 36 ng/kg/min): 5.2 bpm
Heart Rate Percent Change from Baseline ([3]; infusion rate 36 ng/kg/min): 9.4%
Heart Rate Change from Baseline ([3]; infusion rate 54 ng/kg/min): 12.7 bpm
Heart Rate Percent Change from Baseline ([3]; infusion rate 54 ng/kg/min): 20.5%
Heart Rate Change from Baseline ([3]; infusion rate 72 ng/kg/min): 18.1 bpm
Heart Rate Percent Change from Baseline ([3]; infusion rate 72 ng/kg/min): 30.3%
Heart Rate Change from Baseline ([3]; infusion rate 108 ng/kg/min): 20.9 bpm
Heart Rate Percent Change from Baseline ([3]; infusion rate 108 ng/kg/min): 31.3%
Heart Rate Change from Baseline ([3]; infusion rate 144 ng/kg/min): 21.2 bpm
Heart Rate Percent Change from Baseline ([3]; infusion rate 144 ng/kg/min): 34.3%
